The pKi is the negative decadic logarithm of the Ki, by convention in mol/L. A low value points to a high Ki.

We go through one molecule from patent US9382295B2, “Cyclic depsipeptide compounds and their uses” (Cypralis Limited, priority 2012, dated 2016).

For one test, the target named is cyclophilin D (Cyp D) (Homo sapiens, UniProt P30405). Kind of test: Protease-free PPIase assay, cyclophilin D. Type of test: biochemical. The method, boiled down: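 Cis-trans isomerization of a succinimide-peptide substrate (60 µM final) by 2 nM enzyme was followed at 330 nm in 35 mM HEPES pH 7.8 with 50 µM DTT, stirred at 10.0 °C, DMSO ≤0.5%. First-order rate constants minus background were fitted against inhibitor concentration to give Ki.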

A further test addresses T1, cyclophilin A (Cyp A) (Homo sapiens, UniProt P62937).
T1 construct: purchased Sigma C3805
Kind of test: Protease-free PPIase assay, cyclophilin A. Type of test: biochemical. The method, boiled down:
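Protease-free cis-trans isomerisation: 2 nM recombinant human cyclophilin A with 60 μM succinimide-peptide substrate in 35 mM HEPES pH 7.8 plus DTT, at 10.0 °C, max 0.5% DMSO. Absorbance at 330 nm was fitted to first-order kinetics, background subtracted, and catalytic rates versus inhibitor concentration gave Ki.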

pKi: −log10 of the molar value.

T1 sequence (P62937 whole entry): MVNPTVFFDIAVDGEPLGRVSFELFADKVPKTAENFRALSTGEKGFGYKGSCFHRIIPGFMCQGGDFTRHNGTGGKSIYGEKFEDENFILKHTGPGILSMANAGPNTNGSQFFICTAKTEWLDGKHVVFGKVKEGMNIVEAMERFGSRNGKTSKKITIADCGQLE
cyclophilin D (Cyp D), sequence (P30405 30-207): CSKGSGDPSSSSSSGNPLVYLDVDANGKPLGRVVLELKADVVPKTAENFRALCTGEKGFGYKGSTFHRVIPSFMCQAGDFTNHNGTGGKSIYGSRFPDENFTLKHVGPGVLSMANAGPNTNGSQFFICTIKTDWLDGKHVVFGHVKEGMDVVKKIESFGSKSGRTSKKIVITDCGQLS

Turning to `CC(C)CC1NC(=O)[C@H](CC(C)C)N(C)C(=O)CN(C)C(=O)C([C@@H](C)O)NC(=O)C([C@H](O)[C@H](C)CCN2CCOCC2)N(C)C(=O)C(C(C)C)N(C)C(=O)C(CC(C)C)NC(=O)C(CC(C)C)N(C)C(=O)C(C(C)C)OC(=O)C(C)NC(=O)C(CC(C)C)N(C)C1=O` (stereo in doubt) [Example 2, cyclo-[(3R,4R,5S)-4-(hydroxy)-3-methyl-5-(methylamino)-1-N-morpholino-hexanoic acid-Thr-Sar-MeLeu-Leu-MeLeu-Ala-D-Hiv-MeLeu-Leu-MeVal]], the pKi at cyclophilin D (Cyp D) is 8.19; on cyclophilin A (Cyp A), 8.04.
